The source of these data is patent publication US9193669B2, “Compounds for treating ophthalmic diseases and disorders” (Acucela Inc., priority 2008, dated 2015).

Assay [1] deals with T1, recombinant human RPE65 and LRAT (Homo sapiens, UniProt Q16518).
T1 construct: made in house; host or cells: HEK293 cell clone (homogenate) for RPE65 and LRAT; E. coli TOP10 for CRALBP
T1 sequence (Q16518 2-533 limits assumed): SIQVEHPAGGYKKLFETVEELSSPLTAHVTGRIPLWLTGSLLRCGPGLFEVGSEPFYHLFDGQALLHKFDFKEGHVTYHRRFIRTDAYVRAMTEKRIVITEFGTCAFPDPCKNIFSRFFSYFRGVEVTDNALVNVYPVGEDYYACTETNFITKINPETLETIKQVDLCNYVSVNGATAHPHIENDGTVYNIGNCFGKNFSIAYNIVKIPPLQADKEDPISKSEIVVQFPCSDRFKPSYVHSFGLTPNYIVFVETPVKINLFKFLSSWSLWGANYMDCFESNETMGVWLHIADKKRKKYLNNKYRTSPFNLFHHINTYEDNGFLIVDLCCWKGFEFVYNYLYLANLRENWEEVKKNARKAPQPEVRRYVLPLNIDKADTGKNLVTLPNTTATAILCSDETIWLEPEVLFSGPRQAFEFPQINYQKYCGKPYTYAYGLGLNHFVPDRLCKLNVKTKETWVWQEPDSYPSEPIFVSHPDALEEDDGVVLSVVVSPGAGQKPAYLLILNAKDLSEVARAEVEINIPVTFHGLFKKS
The assay is described as follows: Human in vitro isomerase inhibition reaction. As to conditions: human in vitro isomerase assay, FIG. 1 and FIG. 2. In kind it is biochemical. The procedure: A homogenate of HEK293 cell clone expressing recombinant human RPE65 and LRAT were the source of the visual enzymes, and exogenous all-trans-retinol (about 20 μM) was used as the substrate. […] The 200 μL Bis-Tris Phosphate buffer (10 mM, pH 7.2) based reaction mixture also contains 0.5% BSA, and 1 mM NaPPi. In this assay, the reaction was carried out at 37° C. in duplicates for one hour and was terminated by addition of 300 μL methanol. The amount of reaction product, 11-cis-retinol, was measured by HPLC analysis following Heptane extraction of the reaction mixture.

A further assay deals with T2, isomerase (Mus musculus, UniProt Q91ZQ5).
T2 construct: The recovery of 11-cis-retinal after bleaching can be used to estimate the activity of isomerase in vivo; from tissue; host or cells: eyes of living mice (CD-1; Balb/c also named)
T2 sequence (Q91ZQ5 1-533): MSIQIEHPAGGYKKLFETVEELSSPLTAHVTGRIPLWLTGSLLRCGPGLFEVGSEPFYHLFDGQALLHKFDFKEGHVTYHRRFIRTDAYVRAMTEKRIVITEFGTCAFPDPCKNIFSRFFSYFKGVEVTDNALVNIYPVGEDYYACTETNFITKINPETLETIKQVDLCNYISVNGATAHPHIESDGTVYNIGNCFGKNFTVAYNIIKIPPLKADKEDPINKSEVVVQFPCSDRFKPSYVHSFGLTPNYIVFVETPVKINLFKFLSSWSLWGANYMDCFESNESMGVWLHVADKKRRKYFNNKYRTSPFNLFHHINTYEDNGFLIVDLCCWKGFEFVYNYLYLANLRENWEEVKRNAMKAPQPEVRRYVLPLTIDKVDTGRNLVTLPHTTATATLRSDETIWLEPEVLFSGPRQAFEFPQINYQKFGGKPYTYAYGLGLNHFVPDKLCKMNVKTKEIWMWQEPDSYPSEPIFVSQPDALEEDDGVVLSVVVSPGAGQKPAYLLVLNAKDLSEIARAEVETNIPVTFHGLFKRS
The assay is described as follows: In vivo murine isomerase assay. Also noted: species or system mice. To be noted: for inhibition in vivo at 1 mg/kg: mouse, po, 4 h, read-out: % Inibition 1 mg/kg, 4 h. Here is the method: The capability of compounds described herein to inhibit isomerase was determined by an in vivo murine isomerase assay. Brief exposure of the eye to intense light (“photobleaching” of the visual pigment or simply “bleaching”) is known to photo-isomerize almost all 11-cis-retinal in the retina. The recovery of 11-cis-retinal after bleaching can be used to estimate the activity of isomerase in vivo. Delayed recovery, as represented by lower 11-cis-retinal oxime levels, indicates inhibition of isomerization reaction. Procedures were performed essentially as described by Golczak et al., Proc. Natl. Acad. Sci. […] Mice were gavaged with the compounds described in the present disclosure. After about 2-24 hours in the dark, the mice were exposed to photobleaching of about 5,000 lux of white light for 10 minutes. The mice were allowed to recover for about 2 hours in the dark. The animals were then sacrificed by carbon dioxide inhalation. Retinoids were extracted from the eye and the regeneration of 11-cis-retinal was assessed at various time intervals. […] After the mice were sacrificed, the eyes were immediately removed and placed in liquid nitrogen for storage. The eyes were placed in about 500 μL of bis-tris propane buffer (10 mM, pH˜7.3) and about 20 μl of 0.8M hydroxylamine (pH˜7.3). The eyes were cut up into small pieces with small iris scissors and then thoroughly homogenized at 30000 rpm with a mechanical homogenizer (Polytron PT 1300 D) in the tube until no visible tissue remains. About 500 μL of methanol and about 500 μL of heptane was added to each tube. The tubes were attached to a vortexer so that the contents are mixed thoroughly for about 15 minutes in room temperature. […] The samples were analyzed on an Agilent 1100 HPLC system with normal phase column: SILICA (Beckman Coutlier, dp 5 μm, […]). […] Loading volume for each sample was about 100 μl; detection wavelength is 360 nm. The area under the curve for 11-cis-retinal oxime was calculated by Agilent Chemstation software and recorded manually. Data processing was performed using Prizm software. Positive control mice (no compound administered) were sacrificed fully dark-adapted and the eye retinoids analyzed. Light (bleached) control mice (no compound administered) were sacrificed and retinoids isolated and analyzed immediately after light treatment. A time course study was also performed to determine the isomerase inhibitory activity of compounds of the present disclosure. Female or male mice (such as Balb/c mice) (at least 4/group) received 0 to about 5 mg of compounds (in water) per kg bodyweight orally, by gavage. The animals were then “photo-bleached” (about 5000 Lux white light for about 10 minutes) at about 2, 4, 8, 16 and 24 hours after dosing, and returned to darkness to allow recovery of the 11-cis-retinal content of the eyes. Mice were sacrificed about 2 hours after bleaching, eyes were enucleated, and retinoid content was analyzed by HPLC. A dose response in vivo isomerase inhibition study is performed with compounds of the present disclosure. Male or female mice (such as Balb/c mice)(at least about 8/group) are dosed orally with about 0.01 to 25 mg/kg of the compounds of HCl salts of the compounds in sterile water as solution, and photobleached about 4 hours after dosing. Recovery and retinoid analysis is performed as described above. Dark control mice are vehicle-only treated, sacrificed fully dark adapted without light treatment, and analyzed. […]

For the molecule `NCCCc1cccc(NS(=O)(=O)C2CCCCC2)c1` [Example 6, N-(3-(3-aminopropyl)phenyl)cyclohexanesulfonamide], the “inhibition of 11-cis-retinol production” value in assay [1] is listed as “dose-dependent inhibition”. For the same molecule, the “% Inibition 1 mg/kg, 24 h” value at isomerase (1 mg/kg oral, 24 h after dosing, inhibition of 11-cis-retinal (oxime) recovery after photobleach) amounted to 48.70 ± 2.71%. Moreover, the inhibition in vivo at 1 mg/kg on isomerase is -11.9 ± 18.2%.

Regarding `NCCC(=O)c1cccc(NS(=O)(=O)c2ccccc2)c1` [Example 103, N-(3-(3-Aminopropanoyl)phenyl)benzenesulfonamide], on isomerase, the inhibition in vivo at 1 mg/kg is -2.77 ± 6.53%.

Turning to `CCC(CC)CNc1cccc(CCCN)c1` [Example 33, 3-(3-aminopropyl)-N-(2-ethylbutyl)aniline], the inhibition in vivo at 1 mg/kg at isomerase turned out to be 4.32 ± 7.88%.

For `NCCC(O)c1cccc(NS(=O)(=O)C2CCCCC2)c1` (stereo not shown) [Example 5, N-(3-(3-amino-1-hydroxypropyl)phenyl)cyclohexanesulfonamide], the “inhibition of 11-cis-retinol production” value in assay [1] was “dose-dependent inhibition”. Further, on isomerase, the inhibition in vivo at 1 mg/kg is -11.7 ± 4.36%.
